Test results taken from PMC8434415, “Chromone Derivatives with α-Glucosidase Inhibitory Activity from the Marine Fungus Penicillium thomii Maire” (Molecules, 2021).

Experiments:
[1] = test system: α-glucosidase; parameters: method as in PMID 25044593; settings: cited from earlier work
[2] = target: T1, α-glucosidase from Saccharomyes cerevisiae (Saccharomyces cerevisiae, UniProt P53341); assay: α-glucosidase inhibitory assay (PNPG substrate); assay type: biochemical; settings: for inhibition at 667 µM: compound at 667 μM; for IC50: tested between 0.2 and 2 mM, three replicates
T1 construct: purchased Sigma-Aldrich (St. Louis, MO, USA)
T1 sequence (P53341 whole entry): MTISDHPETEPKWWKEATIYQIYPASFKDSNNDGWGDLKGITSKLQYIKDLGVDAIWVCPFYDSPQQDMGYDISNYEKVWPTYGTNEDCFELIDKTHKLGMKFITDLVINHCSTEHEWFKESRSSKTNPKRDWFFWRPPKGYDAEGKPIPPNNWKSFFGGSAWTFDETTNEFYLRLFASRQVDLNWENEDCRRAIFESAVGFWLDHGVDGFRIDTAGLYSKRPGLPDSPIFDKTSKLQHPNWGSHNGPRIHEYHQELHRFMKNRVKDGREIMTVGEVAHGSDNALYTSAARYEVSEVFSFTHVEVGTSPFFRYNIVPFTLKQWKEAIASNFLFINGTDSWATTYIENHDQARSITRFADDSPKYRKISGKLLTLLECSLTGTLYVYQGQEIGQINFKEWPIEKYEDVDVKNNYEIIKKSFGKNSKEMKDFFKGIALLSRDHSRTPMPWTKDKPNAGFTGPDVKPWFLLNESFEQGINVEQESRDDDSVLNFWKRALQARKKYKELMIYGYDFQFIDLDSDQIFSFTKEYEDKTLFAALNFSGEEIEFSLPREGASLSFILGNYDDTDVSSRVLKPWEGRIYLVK
Experimental: The α-glucosidase inhibitory effect was performed as follows. The 0.2 U of α-glucosidase from Saccharomyes cerevisiae, purchased from Sigma-Aldrich (St. Louis, MO, USA), was diluted to 0.067 M phosphate buffer consisting of Na2HPO4·12H2O and KH2PO4 (pH 6.8). The assay was conducted in a 60 μL reaction system containing 20 μL of diluted enzyme solution and 20 μL of DMSO or sample (dissolved in DMSO). After 10 min of incubation in the 96-well plates at 37 °C, 20 μL of 4 mM PNPG (4-nitrophenyl-α-D-glucopyranoside, Aladdin, Shanghai, China) was added as substrate to start the enzymatic reaction. The plate was incubated for an additional 20 min at 37 °C, and the reaction was quenched by adding 60 μL of 0.2 M Na2CO3. The final concentrations of tested compounds were between 0.2 and 2 mM. The optical density (OD) was measured at an absorbance wavelength of 405 nm using a Microplate Reader (Tecan, Switzerland). […] Percent inhibition was calculated by the following equation: Inhibition (%) = ((Absorbance of control − Absorbance of test)/Absorbance of control)); IC50 concentrations are calculated using concentration vs. percent inhibition values.

[3] = DPPH radical scavenging (antioxidant) test; settings: for Antioxidant % Inhibition (1000 μM): compound at 1000 μM
Experimental: The DPPH scavenging was assayed following the procedures in our recent published paper. The DPPH radical scavenging test was performed in 96-well microplates. Then, 20 μL of samples at a concentration of 10 mM in MeOH were added to 180 μL (150 μmol/L) DPPH solution. After 30 min of light avoidance, absorbance at 517 nm using a Microplate Reader (Tecan, Switzerland) was measured and the percentage of activity was calculated. All assays were performed in three replicates, and vitamin C was used as a positive control. Percent inhibition was calculated by the following equation: Inhibition (%) = ((Absorbance of control − Absorbance of test)/Absorbance of control)); IC50 concentrations are calculated using concentration vs. percent inhibition values.

[4] = test system: several carcinoma cell lines; settings: cited from earlier work
[5] = target: liver X receptor α; parameters: method as in PMID 33932772; settings: read-out: dissociation equilibrium constant; cited from earlier work

Compound | inhibition at 667 µM [2] [%] | Antioxidant % Inhibition (1000 μM) [3] [%] | other results
COc1cc(OC)c2c(=O)cc(CCCC(=O)O)oc2c1 [4-(5,7-dimethoxy-4-oxo-4H-chromen-2-yl)butanoic acid] | – | – | inhibitory activity on α-glucosidase (in words) [1]: moderate inhibitory activity
C[C@H]1O[C@H](O[C@H]2[C@H](O)[C@@H](O)[C@@H](O[C@H]3[C@H](O)[C@@H](O)C(O)O[C@@H]3CO)O[C@@H]2CO)[C@H](O)[C@@H](O)[C@@H]1N[C@H]1C=C(CO)[C@@H](O)[C@H](O)[C@H]1O (some centres unmarked) [Acarbose, acarbose, reference compound] | 27.7 | – | –
COc1cc(O)c2c(=O)cc(CCC[C@@H]3CCC(=O)O3)oc2c1 [Compound 1, Penithochromone M] | -3.43 | 7.24 | –
O=C(O)CCCCC(O)Cc1cc(=O)c2c(O)cc(O)cc2o1 (centres unmarked) [Compound 2, Penithochromone N] | 15.1 | 35.7 | IC50 [3]: 1970 ± 156 µM
COC(=O)CCCCC(O)Cc1cc(=O)c2c(O)cc(OC)cc2o1 (centres unmarked) [Compound 3, Penithochromone O] | 23.8 | 20.4 | –
COc1cc(OC)c2c(=O)cc(CCCCC(O)CC(=O)O)oc2c1 (centres unmarked) [Compound 4, Penithochromone P] | -9.72 | 12.2 | –
COC(=O)CC(O)CCCCc1cc(=O)c2c(OC)cc(OC)cc2o1 (centres unmarked) [Compound 5, Penithochromone Q] | 1.41 | 11.2 | –
O=C(O)CC(O)CCCCc1cc(=O)c2c(O)cc(O)cc2o1 (centres unmarked) [Compound 6, Penithochromone R] | 27.3 | 33.8 | IC50 [2]: 842 ± 11 µM
COc1cc(O)c2c(=O)cc(CC(O)CCCCCCC(=O)O)oc2c1 (centres unmarked) [Compound 7, Penithochromone S] | 25.2 | 23.6 | IC50 [2]: 917 ± 8 µM
COc1cc(O)c2c(=O)cc(CC(O)CCCC/C=C/C(=O)O)oc2c1 (centres unmarked) [Compound 8, Penithochromone T] | 41.7 | 19.3 | IC50 [2]: 1020 ± 22 µM
COc1cc(O)c2c(=O)cc(CCCCCCC(=O)O)oc2c1 [Compound 9, penithochromone C] | 40.2 | 18.1 | IC50 [2]: 688 ± 24 µM
O=C(O)CCCCCCc1cc(=O)c2c(O)cc(O)cc2o1 [Compound 10, penithochromone A] | 74.7 | 21.8 | IC50 [2]: 268 ± 25 µM
O=C1O[C@H]([C@@H](O)CO)C(O)=C1O [Vitamin C, vitamin C, reference compound] | – | 96.4 | IC50 [3]: 26.7 µM
COC(=O)[C@H](O)C[C@](O)(C(=O)OC)[C@@H]1Cc2c(oc3cc(C)cc(O)c3c2=O)S1 [oxalicumone A, oxalicumones A] | – | – | IC50 [4]: < 10 µM
COC(=O)[C@H](O)C[C@](O)(C(=O)OC)[C@H]1Cc2c(oc3cc(C)cc(O)c3c2=O)S1 [oxalicumone B, oxalicumones B] | – | – | IC50 [4]: < 10 µM
COC(=O)C(O)(C[C@@H](O)C(=O)O)[C@@H]1Cc2c(oc3cc(C)cc(O)c3c2=O)S1 (some centres unmarked) [oxalicumone D, oxalicumones D] | – | – | IC50 [4]: < 10 µM
COC(=O)CC(O)(C(=O)OC)[C@@H]1Cc2c(oc3cc(C)cc(O)c3c2=O)S1 (some centres unmarked) [oxalicumone E, oxalicumones E] | – | – | IC50 [4]: < 10 µM
Pestalotiochromone A | – | – | Kd [5]: 6.2 µM
